In publication PMC3908613 (Bioscience Reports, 2014):

Assays:
DC = test: Actin cytoskeleton organisation in DC (confocal microscopy); format: cell-based, C57BL/6 mice; conditions: 4 μM D1870 or 2 μM BIX, 1h30 at 37°C
Description: 2 μMBIXfor1h30at37◦ C. Cells were ﬁxed in 4 % (v/v) paraformalde-hyde for 15 min, permeabilized with 0.1 % Triton for 5 min and stained with phalloidin-Alexa 555 (Invitrogen) and anti-vinculin antibody (Sigma) followed by goat anti-mouse Alexa 488 antibody (invitrogen). Cells were analysed on a Zeiss700 confocal microscope. V inculin (green) and phal-loidin (red). Error bar 10 μm. Images are representative of three inde- […]
© 2014 The Author(s) This is an Open Access ar ticle distributed under the terms of the Creative Commons Attribution Licence (CC-BY) (http://creativecommons.org/licenses/by/3.0/)c which permits unrestricted use, distribution and reproduction in any medium, provided the original work is properly cited.
(1 picture or pasted object on this page, not shown here)

BMDC [1] = test: Immunoblot of phosphorylated signalling proteins in stimulated BMDC; format: cell-based, C57BL/6 mice
Description: BMDC (1.5×10^6 cells) were incubated in 6-well plates in RPMI supplemented with 0.3% FCS for 5 h at 37°C. […] NIH3T3 cells (2×10^4) were plated in 6-well plates for 48 h at 37°C. The cells were deprived of serum for 8 h in DMEM supplemented with 2 mg/ml BSA (Sigma) and then stimulated with 100 ng/ml EGF (epidermal growth factor; Peprotech) for 5 min at 37°C.
Cells were washed in cold PBS, lysed on ice for 10 min in lysis buffer (1% Triton X-100 containing 50 mM Tris–HCl (pH 7.5), 150 mM NaCl, 1 mM EGTA, 1 mM EDTA, 10 mM NaF, 1 mM sodium orthovanadate and 5 mM sodium pyrophosphate and protease inhibitors (Roche)) and centrifuged for 10 min at 20000 g at 4°C.
BMDC (5×10^6 cells) were stimulated as described above. Lysates were pre-cleared with protein G Sepharose beads (Roche) for 30 min at 4°C. Paxillin was immunoprecipitated with 2 μg of anti-paxillin (Millipore) or with anti-IgG antibodies (Santa Cruz Biotechnology) for 1 h at 4°C and then incubated with 15 μl protein G Sepharose beads for 1 h at 4°C. Beads were washed four times with lysis buffer and paxillin was eluted with NuPage sample buffer (Invitrogen). The immunoprecipitated proteins were separated by electrophoresis on a 10% (w/v) NuPage gel and transferred onto a nitrocellulose membrane. The membrane was probed with anti-phospho Ser250-paxilin (kind gift of Luc Sabourin, McMaster University, Canada) or anti-paxillin antibodies.

BMDC [2] = test: Cytokine production by LPS-stimulated BMDC (ELISA); format: cell-based, C57BL/6 mice
Description: DCs were generated from the bone marrow or the spleen of C57BL/6 mice as previously described. Briefly, bone marrow cells were cultured for 7 days at 37°C, 5% (v/v) CO2 in complete RPMI medium supplemented with 10 ng/ml recombinant granulocyte-macrophage colony-stimulating factor (GM-CSF; Peprotech). Spleen cells were cultured for 14 days at 37°C, 5% CO2 in complete RPMI containing 10 ng/ml GM-CSF and 1 ng/ml TGFβ (transforming growth factor-β; R&D Systems). NIH3T3 cells (European Cell Culture Collection) were cultured in DMEM (Dulbecco's modified Eagle's medium) supplemented with glutamine, penicillin, streptomycin and 10% (v/v) calf serum (Invitrogen). […] The amounts of TNFα (tumour necrosis factor α), IL6 (interleukin 6) and IL10 in the supernatant were measured using ELISA kits specific for each cytokine (TNFα, IL6; Peprotech, IL10; R&D Systems).

Slk = biological target: T1, Slk (Mus musculus, UniProt O54988); test: Activity of Slk immunoprecipitated from BMDC; format: biochemical, C57BL/6 mice; conditions: immunoprecipitates treated with 1 μM D1870; resting and LPS-stimulated DC
T1 construct: Mst1, Lok and Slk were immunoprecipated from 150 μg, 850 μg and 1 mg of cell lysates respectively; endogenous in cells; host or cells: mouse bone-marrow-derived dendritic cells (BMDC), immunoprecipitate
Description: Equal numbers of BMDC (1×10^7/dish) were incubated in 15 cm dishes in RPMI supplemented with 0.3% FCS for 3 h at 37°C then incubated for 30 min with or without 50 ng/ml LPS. The cells were washed once in cold PBS and lysed in the lysis buffer described above. Mst1, Lok and Slk were immunoprecipated from 150 μg, 850 μg and 1 mg of cell lysates respectively with 2 μg of anti-MST1 (Cell Signalling), anti-Slk (Bethyl) or anti-Lok (Bethyl) or control IgG (Santa Cruz Biotech) coupled to G-protein Sepharose (Amersham) for 1 h at 4°C. […] Kinase assays were performed as described above.
A combination of SILAC and nucleotide acyl
Alexander J. EDGAR*, Matthias TROST†, Colin WATTS*1 and Rossana ZARU*1
*Division of Cell Signalling and Immunolog y, University of Dundee, Dow Street, Dundee DD1 5EH, U.K., and †MRC Protein Phosphor ylation and Ubiquitylation Unit, College of Life Sciences, University of Dundee, Dow Street, Dundee DD1 5EH, U.K.
Supplementary Table S1 is available at http://www.bioscirep.
Mst1, Lok and Slk activities in DC either unstimulated or stimulated with LPS (50 ng/ml) for 30 min at 37 ◦ C. Immuno- […]
of triplicate stimulations. *P < 0.05, **P < 0.01, ***P < 0.001, ns not signiﬁcant.
1 Correspondence may be addressed to either of these authors (email c.watts@dundee.ac.uk or r.zaru@dundee.ac.uk). […]

[3] = LPS 50 ng/ml, 18 h, increasing concentrations of inhibitor

T1 sequence (O54988 whole entry): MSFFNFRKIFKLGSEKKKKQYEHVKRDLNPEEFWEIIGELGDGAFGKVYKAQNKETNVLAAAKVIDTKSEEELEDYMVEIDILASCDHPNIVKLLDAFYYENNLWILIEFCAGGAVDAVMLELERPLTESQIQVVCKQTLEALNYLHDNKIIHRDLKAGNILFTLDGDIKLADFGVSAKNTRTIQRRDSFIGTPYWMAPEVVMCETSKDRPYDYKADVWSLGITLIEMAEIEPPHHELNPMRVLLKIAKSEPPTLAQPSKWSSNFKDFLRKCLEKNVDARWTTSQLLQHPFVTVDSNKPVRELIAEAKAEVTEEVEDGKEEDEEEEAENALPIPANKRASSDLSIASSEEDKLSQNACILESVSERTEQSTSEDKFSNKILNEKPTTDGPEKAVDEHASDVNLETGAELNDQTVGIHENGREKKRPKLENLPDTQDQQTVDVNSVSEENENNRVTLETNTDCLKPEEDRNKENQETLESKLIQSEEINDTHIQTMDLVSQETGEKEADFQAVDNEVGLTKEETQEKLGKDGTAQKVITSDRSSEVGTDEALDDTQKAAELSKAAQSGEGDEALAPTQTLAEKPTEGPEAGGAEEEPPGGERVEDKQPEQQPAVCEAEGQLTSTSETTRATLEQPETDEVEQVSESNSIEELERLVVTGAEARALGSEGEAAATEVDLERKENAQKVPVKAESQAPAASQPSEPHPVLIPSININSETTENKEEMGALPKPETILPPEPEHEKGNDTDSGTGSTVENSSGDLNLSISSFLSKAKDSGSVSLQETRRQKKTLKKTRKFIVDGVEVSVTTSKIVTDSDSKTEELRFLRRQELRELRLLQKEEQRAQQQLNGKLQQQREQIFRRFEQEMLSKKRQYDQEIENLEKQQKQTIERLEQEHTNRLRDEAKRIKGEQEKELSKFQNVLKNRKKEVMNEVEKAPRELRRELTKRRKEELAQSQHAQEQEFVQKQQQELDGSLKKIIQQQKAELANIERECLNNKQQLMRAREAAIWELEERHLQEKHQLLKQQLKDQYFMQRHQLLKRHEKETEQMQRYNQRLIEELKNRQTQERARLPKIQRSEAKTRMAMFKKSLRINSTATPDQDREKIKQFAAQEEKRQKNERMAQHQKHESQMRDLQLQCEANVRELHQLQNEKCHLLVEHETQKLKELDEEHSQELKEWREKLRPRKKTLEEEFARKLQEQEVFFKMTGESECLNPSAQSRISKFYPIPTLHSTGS

Structure (SMILES): CC(C)CCN1c2nc(Nc3cc(F)c(O)c(F)c3)ncc2N(C)C(=O)C1C (stereo not shown) [D1870, BI-D1870]
- morphological changes in resting DC (cell spreading, focal adhesion, loss of podosomes) (DC): induced morphological changes
- Concentration blocking phosphorylation of Bad (Ser112) (BMDC [1]; LPS 50 ng/ml, 30 min): ≤ 1 µM
- Concentration blocking phosphorylation of filamin A (Ser2152) (BMDC [1]; LPS 50 ng/ml, 30 min): ≤ 1 µM
- Erk1/2, p38 or JNK1/2 phosphorylation (BMDC [1]; LPS 50 ng/ml, 30 min): Neither inhibitor had any effect
- GSK3α/β phosphorylation (BMDC [1]; LPS 50 ng/ml, 30 min): more potent
- PKB phosphorylation at Ser473 and Thr308 (BMDC [1]; LPS 50 ng/ml, 30 min): complete block
- Phosphorylation of MSK1 and MK2 (BMDC [1]; LPS 50 ng/ml, 30 min): not affected
- phosphorylation of IκBα (BMDC [1]; LPS 50 ng/ml, 30 min): neither D1870 nor BIX affected
- phosphorylation of ERM proteins (BMDC [1]; LPS, 30 min): substantial decrease
- phosphorylation of paxillin on Ser250 (BMDC [1]; LPS, 30 min, paxillin immunoprecipitated): prevented its phosphorylation at low concentrations
- PKB phosphorylation (BMDC [1]; MIP1α 100 ng/ml, 5 min, 4 μM D1870): impaired
- IL6 secretion (BMDC [2]; [3]): dose-dependent inhibition
- IL10 secretion (BMDC [2]; [3]): dose-dependent inhibition
- TNFα production (BMDC [2]; [3]): not by D1870
- mRNA levels of IL6 and IL10 (BMDC [2]; after 1 or 3 h of LPS stimulation, data not shown): rapidly inhibited
- kinase activity of Slk immunoprecipitated from DC (Slk): significantly blocked
